Data published in patent publication US20080242657A1, “Treatment of Tremor with Histamine H3 Inverse Agonists or Hist Amine H3 Antagonists” (priority 2004, published 2008).

Tested on: harmaline-induced tremor
Assay: harmaline-induced tremor model in rats
Assay type: in vivo
Source text: The identification of a compound as a histamine H3 inverse agonist or a histamine H3 antagonist may be readily determined without undue experimentation by methodology well known in the art. The efficacy of a histamine H3 inverse agonist or a histamine H3 antagonist in treating tremor may be readily determined without undue experimentation by methodology well known in the art, for example the harmaline-induced tremor model in rats, Sinton, et al., Pflugers Archive Eur. J. Phys., 414(1) 31-36 (1989). […] The ability of the histamine H3 inverse agonist or histamine H3 antagonist to be used in the present invention to treat tremor or movement disorders may be determined by these methods.

## N#Cc1ccc(-c2cnc(OC3CCN(C4CCCC4)CC3)nc2)cc1 [2-(1-cyclopentylpiperidine-4-yloxy)-5-(4-cyanophenyl)pyrimidine]
Dose of 1 mg/kg
  reversal of harmaline-induced tremor: 8.4%
Dose of 3 mg/kg
  reversal of harmaline-induced tremor: 63.3%
Dose of 10 mg/kg
  reversal of harmaline-induced tremor: 84.4%
